The source of these data is publication PMC10747822 (Pharmaceutics, 2023).

Where a SMILES comes first, the peptide text is derived from it. [ ]: non-standard residue; d: D form. The star is where a group is joined. NH(4-amidinobenzyl) = N=C(N)c1ccc(CN*)cc1

A short description of data set [1]: Stability in human Li-heparin plasma. It counts as in vitro ADME. As to conditions: pooled human Li-heparin plasma, over at least 2 h; 1000 ng/mL, room temperature; UPLC-MS/MS. Here is the method:
(§1) To investigate peptide stability, minimally diluted plasma or blood samples were generated through the addition of 10 µL of a spiking solution (50,000 ng/mL) to 490 µL of the pertinent biological matrix, resulting in a sample concentration of 1000 ng/mL. Samples (withdrawal of duplicates of 20 µL) were measured immediately after preparation and again after 1 and 2 h. Stability was evaluated via the comparison of peak area ratios of analyte and IS.
Because an isotopically labeled analog of Ac-[D-Leu]LLLRVK-amba was used as IS, potential variations in (negligible) matrix effects can be efficiently balanced by the IS due to its identical physicochemical characteristics. As a consequence, whole blood from other species is appropriate for calibration and QC preparation. Therefore, whole blood from human donors was used for these purposes, which also helps to reduce animal sacrifice.

Data set [2] in a line: Autosampler (extract) stability. It counts as physicochemical. The settings on record: 24 h in autosampler. Here is the method: Blood samples for calibration and QC purposes were generated through the addition of 25 µL of the pertinent spike solution to 20 µL of blank blood and the subsequent addition of 25 µL of IS solution. Calibration samples were produced at 10, 30, 100, 300, 1000, 3000, and 10,000 ng/mL, and QC samples were produced at concentrations of 10, 30, 3750, and 7500 ng/mL. For study sample processing, 20 µL of each sample was added to 25 µL of IS solution, and 25 µL of ACN/H2O 1/1 + 0.1% FA was added for volume compensation to ensure that sample preparation matches that of study blood samples. For stability reasons, each sample was immediately depleted from proteins by adding 150 µL ACN including 0.1% FA. Samples were processed individually and kept frozen until processing. Subsequently, samples were centrifuged at 13,200× g for 5 min. From the extracts, 10 µL was transferred to 400 µL of ACN/H2O 1/19 + 0.1% FA in wells of a 96-well collection plate (Waters, Milford, MA, USA).
The instrumental setup comprised an Acquity UPLC® Classic System coupled to a Xevo TQ-S triple-stage quadrupole mass spectrometer, which was equipped with a Z-spray heated electrospray ionization (ESI) source (Waters, Milford, MA, USA). […] This yielded an optimal cone voltage of 30 V and collision energy of 10 V. The monitored mass transitions were m/z 343.3 → 436.9 for Ac-[D-Leu]LLLRVK-amba and m/z 345.6 → 440.4 for the IS.
The applicable recommendations for bioanalytical method validation of the FDA and EMA were applied to the validation of the assay. Accuracy was calculated as the percentage of the ratio of the mean of the determined concentrations and the nominal concentration. The acceptance limit is 100 ± 15%, with the exception of the LLOQ where it is 100 ± 20% Q. The assay precision was calculated as the coefficient of variation of the determined sample concentrations. […] Recovery of the whole blood extraction process was calculated from peak areas of QC samples divided by the peak areas obtained from blank blood spiked with the respective amount after processing. […]

Data set [3] in a line: Bench-top stability in mouse plasma. The settings on record: mouse plasma anti-coagulated with Li-heparin, minimally diluted, room temperature. It counts as in vitro ADME. Here is the method:
as §1
To determine which biological matrix is best suited for pharmacokinetic experiments in mice, we investigated the bench-top stability of Ac-[D-Leu]LLLRVK-amba in plasma and fresh whole blood at room temperature over a 2 h period (Figure 3). In plasma, anti-coagulated with Li-heparin, Ac-[D-Leu]LLLRVK-amba was very rapidly degraded.

With `CC(=O)N[C@H](CC(C)C)C(=O)N[C@@H](CC(C)C)C(=O)N[C@@H](CC(C)C)C(=O)N[C@@H](CC(C)C)C(=O)N[C@@H](CCCNC(=N)N)C(=O)N[C@H](C(=O)N[C@@H](CCCCN)C(=O)NCc1ccc(C(=N)N)cc1)C(C)C` [Ac-[D-Leu]LLLRVK-amba] (Ac-[dL]LLLRVK-{NH(4-amidinobenzyl)}), in data set [1], the “degradation in human Li-heparin plasma” value was “no detectable degradation”. For the same compound, the “autosampler (extract) stability, Accuracy [%]” value turned out to be 98.3% in data set [2] (QC A), 99.7% in data set [2] (QC B) and 97.5% in data set [2] (QC C). In data set [3] (CD-1, 1 µg/mL (1000 ng/mL), sampled at 0, 1 and 2 h, duplicates of 20 µL, UPLC-MS/MS peak area ratio analyte/IS, read-out: calculated half-life (t1/2) in plasma (converted)), the half-life at 1000 ng/mL is 28.8 min. Also, in data set [3] (1 µg/mL, 0, 1 and 2 h, duplicates, UPLC-MS/MS, same value given in min), the “calculated half-life (t1/2) in plasma” value is listed as 29 min.
